Measured values as given in US9278968B2, “Imidazopyridine compounds” (ASTELLAS PHARMA INC., priority 2012, dated 2016).

Target: human purified sGC (heterodimer of sGCα1 and sGCβ1) (Homo sapiens (Human), UniProt Q02108+Q02153)
Assay: sGC activation test (cGMP produced, HTRF)
Type: biochemical
Conditions: maximum activity of Preparation Example 200 compound (maximum 100 μM) taken as 100%; with SNP; read-out: EC50 (concentration giving 50% of maximum activity)
Description: The activity of sGC was evaluated by measuring the amount of cGMP produced by human purified sGC.
Using an sGCα 1 gene (NCBI accession No. BC028384.2) and an sGCβ1 gene (NCBI accession No. BC047620.1), an N-terminal FLAG tag-fused sGCα1 and an sGCβ1 expression baculovirus were prepared. These viruses were transfected into insect cells Sf9 (Cat. No. 11496-015, Gibco) to express a protein. From the cell lysates of the insect cells, heterodimers of the N-terminal FLAG tag-fused sGCα1 and sGCβ1 were purified with an M2 Affinity Gel (Sigma-Aldrich, Inc.) to obtain a human sGC.
An Example compound was dissolved in DMSO and diluted 20-fold with ultrapure water. 2 μL of the diluted Example compound solution (maximum concentration of 100 μM), 2 μL of a substrate solution [0.5 μM triethanolamine buffer solution, 0.03 μM dithiothreitol, 0.01 μM GTP, 0.04 μM MgCl2, and 0.03 μM sodium nitroprusside (SNP)], and 6 μL of a human enzyme suspension were added to 384-well plates (manufactured by Greiner Bio-One), and incubated at room temperature for one hour. The measurement of the amount of cGMP was carried out, using an HTRF reagent (Cisbio).
The sGC activation action of the Example compound was calculated as an Example compound concentration which gives 50% of a maximum activity (EC50), in which the maximum activity by the addition of a compound shown in Preparation Example 200, 8-(cyclohexylmethoxy)-N-[(1R)-2-hydroxy-1-phenylethyl]-2-methylimidazo[1,2-a]pyridine-3-carboxamide hydrochloride (maximum 100 μM), is taken as 100%. Further, the maximum activity of sGC with the addition of 8-(cyclohexylmethoxy)-N-[(1R)-2-hydroxy-1-phenylethyl]-2-methylimidazo[1,2-a]pyridine-3-carboxamide hydrochloride is 10-fold or more relative to the sGC activation without the addition of the compound, and it is recognized that the compound has a good sGC activating action. […] The test results of some Example compounds that are the compounds of the formula (I) of the present invention are shown below. Further, in Tables, Ex. represents Example number.

human purified sGC (heterodimer of sGCα1 and sGCβ1), sequence (Q02108 whole entry): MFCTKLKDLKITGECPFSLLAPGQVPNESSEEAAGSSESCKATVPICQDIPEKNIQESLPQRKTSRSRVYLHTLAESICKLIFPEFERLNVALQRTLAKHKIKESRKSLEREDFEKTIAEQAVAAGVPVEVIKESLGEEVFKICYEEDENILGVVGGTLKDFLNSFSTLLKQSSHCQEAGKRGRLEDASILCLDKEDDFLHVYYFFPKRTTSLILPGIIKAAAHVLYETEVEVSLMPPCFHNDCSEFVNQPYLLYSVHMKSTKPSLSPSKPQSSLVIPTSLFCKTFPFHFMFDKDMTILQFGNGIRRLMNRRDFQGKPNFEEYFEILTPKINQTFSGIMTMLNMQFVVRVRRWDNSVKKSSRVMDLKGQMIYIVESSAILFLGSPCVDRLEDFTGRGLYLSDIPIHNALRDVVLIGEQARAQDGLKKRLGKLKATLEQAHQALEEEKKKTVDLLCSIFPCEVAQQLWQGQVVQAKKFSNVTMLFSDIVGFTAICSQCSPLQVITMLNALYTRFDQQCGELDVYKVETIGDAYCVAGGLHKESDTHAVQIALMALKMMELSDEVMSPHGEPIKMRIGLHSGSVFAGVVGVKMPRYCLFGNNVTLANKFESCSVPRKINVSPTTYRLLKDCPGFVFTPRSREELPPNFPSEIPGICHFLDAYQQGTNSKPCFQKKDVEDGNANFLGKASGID
human purified sGC (heterodimer of sGCα1 and sGCβ1), sequence (Q02153 whole entry): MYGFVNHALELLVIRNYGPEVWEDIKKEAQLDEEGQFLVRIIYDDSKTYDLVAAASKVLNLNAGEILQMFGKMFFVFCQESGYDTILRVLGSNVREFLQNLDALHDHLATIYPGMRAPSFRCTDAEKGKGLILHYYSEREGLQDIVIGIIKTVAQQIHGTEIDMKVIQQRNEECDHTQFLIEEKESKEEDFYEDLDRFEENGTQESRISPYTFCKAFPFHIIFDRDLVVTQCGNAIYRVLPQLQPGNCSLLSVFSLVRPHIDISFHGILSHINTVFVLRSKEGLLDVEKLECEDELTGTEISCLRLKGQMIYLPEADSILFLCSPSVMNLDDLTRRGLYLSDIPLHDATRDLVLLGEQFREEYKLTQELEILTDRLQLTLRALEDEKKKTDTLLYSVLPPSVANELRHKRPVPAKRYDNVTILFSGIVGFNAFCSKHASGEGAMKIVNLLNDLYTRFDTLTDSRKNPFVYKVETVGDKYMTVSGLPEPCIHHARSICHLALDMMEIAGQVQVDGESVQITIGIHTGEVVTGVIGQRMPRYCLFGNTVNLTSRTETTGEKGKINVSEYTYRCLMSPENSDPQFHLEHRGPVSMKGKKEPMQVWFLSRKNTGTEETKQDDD

SMILES | EC50
Cc1nc2c(OCc3c(F)cccc3F)cccn2c1C(=O)N[C@]1(c2ccccc2)CC[C@@H](O)[C@H]1O (racemic) [Example 27] | 12 µM
Cc1nc2c(OCc3c(F)cccc3F)cccn2c1C(=O)N[C@]1(c2ccccc2)CC[C@H](O)[C@H]1O (racemic) [Example 28] | 13 µM
Cc1nc2c(OCc3c(F)cccc3F)cccn2c1C(=O)NCc1cccnc1[C@@H](O)[C@@H](C)O (racemic) [Example 89] | 11 µM
Cc1nc2c(OCC3CCCCC3)cccn2c1C(=O)N[C@@](C)(CO)c1cccc(C(=O)O)c1 [Example 3, 3-[(2R)-2-({ [8-(cyclohexylmethoxy)-2-methylimidazo[1,2-a]pyridin-3-yl]carbonyl}amino)-1-hydroxypropan-2-yl]benzoic acid] | 0.72 µM
Cc1nc2c(OCc3c(F)cccc3F)cccn2c1C(=O)NC(C)(CO)c1ccc(CO)cc1 (stereo not shown) [Example 4, 8-[(2,6-difluorobenzyl)oxy]-N-{1-hydroxy-2-[4-(hydroxymethyl)phenyl]propan-2-yl}-2-methylimidazo[1,2-a]pyridine-3-carboxamide] | 1.4 µM
Cc1nc2c(OCc3c(F)cccc3F)cccn2c1C(=O)NCc1ccccc1C(O)CO (stereo not shown) [Example 5, 8-[(2,6-difluorobenzyl)oxy]-N-[2-(1,2-dihydroxyethyl)benzyl]-2-methylimidazo[1,2-a]pyridine-3-carboxamide] | 6.4 µM
Cc1nc2c(OCC3CCCCC3)cccn2c1C(=O)N[C@@](C)(CO)c1cccc(C(N)=O)c1 [Example 13] | 0.84 µM
Cc1nc2c(OCc3c(F)cccc3F)cccn2c1C(=O)NC(C)(CO)c1ncccn1 (stereo not shown) [Example 14] | 4.4 µM
Cc1ncc([C@H](CO)NC(=O)c2c(C)nc3c(OCc4c(F)cccc4F)cccn23)s1 [Example 24] | 3.6 µM
Cc1nc2c(OCC3CCCCC3)cccn2c1C(=O)N[C@@H](CO)c1nnnn1C [Example 29] | 17 µM
Cc1nc2c(OCC3CCCCC3)cccn2c1C(=O)N[C@@H](CO)c1nnn(C)n1 [Example 34] | 11 µM
Cc1nnc([C@H](CO)NC(=O)c2c(C)nc3c(OCc4c(F)cccc4F)cccn23)o1 [Example 42] | 33 µM
Cc1nnc([C@H](CO)NC(=O)c2c(C)nc3c(OCC4CCCCC4)cccn23)o1 [Example 43] | 14 µM
CCc1nnc([C@H](CO)NC(=O)c2c(C)nc3c(OCc4c(F)cccc4F)cccn23)o1 [Example 44] | 16 µM
CCc1nnc([C@H](CO)NC(=O)c2c(C)nc3c(OCC4CCCCC4)cccn23)o1 [Example 45] | 9.1 µM
Cc1nc2c(OCC3CCCCC3)cccn2c1C(=O)N[C@@H](CO)c1nnc(C2CC2)o1 [Example 47] | 13 µM
Cc1nc2c(OCc3c(F)cccc3F)cccn2c1C(=O)NC(C)(CO)c1cnn(C)c1 (stereo not shown) [Example 50] | 7.9 µM
Cc1nc2c(OCc3c(F)cccc3F)cccn2c1C(=O)NC(CO)(CO)c1cccc(CO)c1 [Example 53] | 1.7 µM
Cc1nc2c(OCc3c(F)cccc3F)cccn2c1C(=O)NC(CO)(CO)c1cccc(F)c1 [Example 55] | 2 µM
Cc1nc2c(OCc3c(F)cccc3F)cccn2c1C(=O)NC(CO)(CO)c1ccc(F)cn1 [Example 57] | 3.7 µM
COc1ccc(C(CO)(CO)NC(=O)c2c(C)nc3c(OCc4c(F)cccc4F)cccn23)cn1 [Example 58] | 3.3 µM
Cc1cnc(C(CO)(CO)NC(=O)c2c(C)nc3c(OCc4c(F)cccc4F)cccn23)o1 [Example 60] | 12 µM
Cc1ccnc(C(CO)(CO)NC(=O)c2c(C)nc3c(OCc4c(F)cccc4F)cccn23)c1 [Example 62] | 6.5 µM
Cc1nc2c(OCc3c(F)cccc3F)cccn2c1C(=O)NC(CO)(CO)c1nnn(C)n1 [Example 64] | 30 µM
Cc1nc2c(OCC3CCCCC3)cccn2c1C(=O)NC(CO)(CO)c1nnn(C)n1 [Example 66] | 16 µM
COCCn1nnc(C(C)(CO)NC(=O)c2c(C)nc3c(OCc4c(F)cccc4F)cccn23)n1 (stereo not shown) [Example 74] | 12 µM
Cc1nc2c(OCc3c(F)cccc3F)cccn2c1C(=O)NC(C)(CO)c1nnn(CCO)n1 (stereo not shown) [Example 75] | 9.1 µM
Cc1nc2c(OCc3cccc(F)c3F)cccn2c1C(=O)NC(C)(CO)c1nnn(C)n1 (stereo not shown) [Example 82] | 21 µM

Results, then the molecule that gave them:

EC50 | SMILES
9.8 µM | Cc1nc2c(OCc3c(F)cccc3F)cccn2c1C(=O)NCc1ccncc1[C@@H](O)[C@@H](C)O (racemic) [Example 90]
1.9 µM | Cc1nc2c(OCc3c(F)cccc3F)cccn2c1C(=O)N[C@@H](C)c1ccccc1[C@@H](O)CO (stereo in doubt) [Example 59]
0.78 µM | Cc1nc2c(OCc3c(F)cccc3F)cccn2c1C(=O)N[C@@](C)(CO)c1cccc(C(N)=O)c1 [Example 12]
2.8 µM | Cc1nc2c(OCc3ccccc3F)cccn2c1C(=O)N[C@@](C)(CO)c1cccc(CO)c1 [Example 15]
2.1 µM | Cc1cnc([C@H](CO)NC(=O)c2c(C)nc3c(OCc4c(F)cccc4F)cccn23)s1 [Example 16]
4 µM | Cc1nc2c(OCc3c(F)cccc3F)cccn2c1C(=O)N[C@@](C)(CO)c1nc(CO)cs1 [Example 21]
9.8 µM | Cc1nc2c(OCc3ncccc3F)cccn2c1C(=O)N[C@@](C)(CO)c1ccccc1F [Example 23]
24 µM | Cc1nc2c(OCc3c(F)cccc3F)cccn2c1C(=O)N[C@@H](CO)c1nnn(C)n1 [Example 26]
5.6 µM | Cc1nc2c(OCc3c(F)cccc3F)cccn2c1C(=O)NCc1ccccc1[C@H](O)[C@H](C)O [Example 30]
8.2 µM | Cc1nc2c(OCc3c(F)cccc3F)cccn2c1C(=O)NCc1ccccc1[C@@H](O)[C@H](C)O [Example 32]
7.4 µM | Cc1nc2c(OCc3c(F)cccc3F)cccn2c1C(=O)NCc1ccccc1[C@H](O)[C@@H](C)O [Example 33]
20 µM | Cc1nc2c(OCc3c(F)cccc3F)cccn2c1C(=O)N[C@@H](CO)c1nnc(C2CC2)o1 [Example 46]
2.7 µM | Cc1nc2c(OCc3c(F)cccc3F)cccn2c1C(=O)NC(C)(CO)c1cncnc1 (stereo not shown) [Example 48]
25 µM | Cc1nc2c(OCc3c(F)cccc3F)cccn2c1C(=O)NC(CO)c1cnn(C)c1 (stereo not shown) [Example 49]
12 µM | Cc1nc2c(OCc3ccccc3F)cccn2c1C(=O)NC(C)(CO)c1ccc(CO)cc1 (stereo not shown) [Example 51]
8.5 µM | Cc1ccc(C(CO)(CO)NC(=O)c2c(C)nc3c(OCc4c(F)cccc4F)cccn23)nc1 [Example 56]
6.4 µM | Cc1nc2c(OCc3cccc(F)c3F)cccn2c1C(=O)NC(CO)(CO)c1ccc(F)cc1 [Example 61]
14 µM | Cc1nc2c(OCC3CCCCC3)cccn2c1C(=O)N[C@]1(c2ccccn2)C[C@@H](O)[C@@H](O)C1 [Example 68]
21 µM | Cc1nc2c(OCc3c(F)cccc3F)cccn2c1C(=O)NC(CO)(CO)c1cnn(C)c1 [Example 71]
6.4 µM | Cc1nc2c(OCC3CCCCC3)cccn2c1C(=O)NC(C)(CO)c1nnn(C)n1 (stereo not shown) [Example 73a]
5.1 µM | Cc1ncc(C(CO)(CO)NC(=O)c2c(C)nc3c(OCc4c(F)cccc4F)cccn23)s1 [Example 78]
7.1 µM | Cc1nc2c(OCc3c(F)cccc3F)cccn2c1C(=O)NC(C)(C)c1cccc(C(N)=O)c1 [Example 80]
7.1 µM | Cc1nnc(C(C)(CO)NC(=O)c2c(C)nc3c(OCC4CCCCC4)cccn23)o1 (stereo not shown) [Example 84]
2.9 µM | [C-]#[N+]c1cccc([C@](C)(CO)NC(=O)c2c(C)nc3c(OCC4CCCCC4)cccn23)c1 [Example 85]
